Values of other authors in patent EP1691200A1, “The use of BNP-type peptides and ANP-type peptides for assessing the risk of suffering from a cardiovascular complication as a consequence of volume overload” (F. HOFFMANN-LA ROCHE AG, priority 2005, dated 2006).

## CS(=O)(=O)c1ccc(C2=C(c3ccccc3)C(=O)OC2)cc1 [rofecoxib]
25 mg rofecoxib compared with a placebo, after 18 months of follow-up
  additional cardiovascular incidents (myocardial infarction, stroke): 16 per 1,000 treated patients
25 mg rofecoxib compared with a placebo, early post-observation phase
  blood pressure levels: higher blood pressure levels
APPROVE study, patients without any recognisable cardiovascular risk, led to premature discontinuation
  rise in the rate of serious thromboembolic incidents: 3.9 times
